Here are results for one compound from PMC2975748 (Journal of molecular and cellular cardiology, 2010).

The structures appear in SMILES notation.

For the assay, the target named is cardiac troponin C (cTnC), regulatory N-domain (cNTnC) (Homo sapiens, UniProt P19429+P63316). In words: 1H, […]-HSQC NMR titration. The assay is classed as binding.
Sequence of cardiac troponin C (cTnC), regulatory N-domain (cNTnC) (P63316 1-89): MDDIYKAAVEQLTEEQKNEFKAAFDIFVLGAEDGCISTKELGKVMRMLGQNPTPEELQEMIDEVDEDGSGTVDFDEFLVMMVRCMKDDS
Sequence of cardiac troponin C (cTnC), regulatory N-domain (cNTnC) (P19429 145-164): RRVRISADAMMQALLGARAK

As to `O=C(O)Cc1ccc(-c2ccc(F)cc2F)cc1` [dfbp, 2’ ,4’-difluoro(1,1’-biphenyl)-4-yl acetic acid], binding was characterised by a dissociation constant (Kd) of 2.82 ± 0.48 mM.
